We go through 42 compounds from US20240124442A1, “TRICYCLIC-AMIDO-BICYCLIC PRMT5 INHIBITORS” (AMGEN INC., priority 2021, published 2024).

One assay relates to HCT116 MTAP null cells. Briefly: HCT116 MTAP null cell line proliferation / cell viability (CellTiter-Glo, 6 days). The format is cell-based. As to conditions: 144 h; HCT116 MTAP null cells, 6 days treatment, CellTiter-Glo cell viability; read-out: HCT-116 MTAP null IC50. In short, it runs like this:
(§1)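 WT vs MTAP-null HCT116, 6 d drug, CTG readout. 1:3 × 8–9 pts (top 1/10 μM) or 1:2 × 22 pts (top 10/50 μM). IC50 by 4PL or Hill −1 fit.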
On the technique in general: ATP-based viability assays read luminescence as a measure of living cells.

A further assay concerns HCT116 WT cells. The assay is described as follows: HCT116 WT (parent) cell line proliferation / cell viability (CellTiter-Glo, 6 days). The format is cell-based. The following applies: Homo sapiens, HCT-116, 144 h, 6 days treatment. The method, boiled down: as §1

SMILES strings stand for the structures.

Usually IC50 stands for the midpoint of a concentration-inhibition curve. As to `Cc1cc2nc(N)c3cnn(C)c3c2cc1C(=O)N(C)[C@H]1COCc2c1ccc(C(F)(F)F)c2F` (single isomer, unassigned) [Example 437], the results for the IC50 in the assay with HCT116 MTAP null cells and in the assay on HCT116 WT cells were 41 nM and 687 nM, respectively.

For the compound `CCOc1ccc2c(n1)COC[C@H]2N(C)C(=O)c1ccc2nc(N)c3c(cnn3C)c2c1` (single isomer, unassigned) [Example 438], the IC50 amounted to 193 nM with HCT116 MTAP null cells and 25200 nM in the assay on HCT116 WT cells.

In the case of `CN(C(=O)c1cc2c(cc1F)nc(N)c1c2cnn1C)[C@@H]1CCCc2nc(C(F)(F)F)ccc21` (single isomer, unassigned) [Example 439], the values for the IC50 in the assay with HCT116 MTAP null cells and in the assay with HCT116 WT cells were 192 nM and 9460 nM, respectively.

For `CN(C(=O)c1cc2c(cc1F)nc(N)c1c2cnn1C)[C@@H]1COCc2c1ccc(C(F)(F)F)c2F` (single isomer, unassigned) [Example 440], the IC50 was determined as 48 nM in the assay on HCT116 MTAP null cells and 3010 nM with HCT116 WT cells.

On to `CN(C(=O)c1ccc2nc(N)c3cnn(C)c3c2c1)[C@@H]1CCOCc2nc(C(F)(F)F)ccc21` (single isomer, unassigned) [Example 441], for which the IC50 in the assay on HCT116 MTAP null cells is 181 nM; in the assay on HCT116 WT cells, 9310 nM.

In the case of `CN(C(=O)c1cc2c3c(c(N)nc2cn1)COC3)[C@@H]1COc2cc(C(F)(F)F)ccc21` (single isomer, unassigned) [Example 522], the IC50 with HCT116 MTAP null cells came out at 63 nM; with HCT116 WT cells, 2470 nM.

Regarding `CN(C(=O)c1cc2c3c(c(N)nc2cn1)COC3)[C@H]1COc2cc(C(F)(F)F)ccc21` (single isomer, unassigned) [Example 523], the values for the IC50 with HCT116 MTAP null cells and with HCT116 WT cells were 2720 nM and 10000 nM, respectively.

As for `COc1ccc2c(n1)OC[C@H]2N(C)C(=O)c1ccc2nc(N)c3c(c2c1)COC3` (single isomer, unassigned) [Example 524], the IC50 came to 396 nM in the assay with HCT116 MTAP null cells and 24500 nM in the assay on HCT116 WT cells.

Take `COc1ccc2c(n1)OC[C@@H]2N(C)C(=O)c1ccc2nc(N)c3c(c2c1)COC3` (single isomer, unassigned) [Example 525]: the IC50 in the assay on HCT116 MTAP null cells stood at 4160 nM; in the assay on HCT116 WT cells, 50000 nM.

As to `CN(C(=O)c1ccc2nc(N)c3c(c2c1)COC3)[C@@H]1COc2cc(OC(F)F)ccc21` (single isomer, unassigned) [Example 526], the results for the IC50 in the assay on HCT116 MTAP null cells and with HCT116 WT cells were 52 nM and 3820 nM, respectively.

Take `CN(C(=O)c1ccc2nc(N)c3c(c2c1)COC3)[C@@H]1CCc2nc(C(F)(F)F)ccc21` (single isomer, unassigned) [Example 527]: the IC50 in the assay with HCT116 MTAP null cells worked out at 143 nM; in the assay on HCT116 WT cells, 7520 nM.

`CN(C(=O)c1ccc2nc(N)c3c(c2c1)COC3)[C@H]1CCc2nc(C(F)(F)F)ccc21` (single isomer, unassigned) [Example 528]: the IC50 came out at 5280 nM in the assay on HCT116 MTAP null cells and 50000 nM in the assay on HCT116 WT cells.

As to `CN(C(=O)c1ccc2nc(N)c3c(c2c1)COC3)C1COc2nc(C(F)(F)F)ccc21` (single isomer, unassigned) [Example 529], the IC50 in the assay on HCT116 MTAP null cells stood at 89 nM; with HCT116 WT cells, 5590 nM.

Turning to `CN(C(=O)c1ccc2nc(N)c3c(c2c1)COC3)[C@H]1COc2nc(C(F)(F)F)ccc21` (single isomer, unassigned) [Example 530], the results for the IC50 in the assay with HCT116 MTAP null cells and in the assay on HCT116 WT cells were 2510 nM and 40200 nM, respectively.

Turning to `CN(C(=O)c1ccc2nc(N)c3c(c2c1)COC3)[C@@H]1CCc2cc(OC(F)(F)F)ccc21` (single isomer, unassigned) [Example 531], the IC50 worked out at 113 nM in the assay with HCT116 MTAP null cells and 4860 nM in the assay on HCT116 WT cells.

In the case of `CN(C(=O)c1ccc2nc(N)c3c(c2c1)COC3)[C@H]1CCc2cc(OC(F)(F)F)ccc21` (single isomer, unassigned) [Example 532], the concentration for half-maximal inhibition (IC50) amounted to 2510 nM with HCT116 MTAP null cells and 6680 nM in the assay on HCT116 WT cells.

With `CCN(C(=O)c1ccc2nc(N)c3c(c2c1)COC3)[C@@H]1COc2cc(C(F)(F)F)ccc21` (single isomer, unassigned) [Example 533], the IC50 stood at 17 nM in the assay with HCT116 MTAP null cells and 816 nM in the assay with HCT116 WT cells.

As to `CCN(C(=O)c1ccc2nc(N)c3c(c2c1)COC3)[C@H]1COc2cc(C(F)(F)F)ccc21` (single isomer, unassigned) [Example 534], the IC50 with HCT116 MTAP null cells came out at 1730 nM; in the assay on HCT116 WT cells, 23900 nM.

Regarding `Nc1nc2ccc(C(=O)N(CC3CC3)[C@@H]3COc4cc(C(F)(F)F)ccc43)cc2c2c1COC2` (single isomer, unassigned) [Example 535], the values for the IC50 in the assay with HCT116 MTAP null cells and in the assay on HCT116 WT cells were 7 nM and 198 nM, respectively.

In the case of `Nc1nc2ccc(C(=O)N(CC3CC3)[C@H]3COc4cc(C(F)(F)F)ccc43)cc2c2c1COC2` (single isomer, unassigned) [Example 536], the half-inhibitory concentration (IC50) with HCT116 MTAP null cells is 728 nM; in the assay on HCT116 WT cells, 11700 nM.

For the compound `C[C@H]1OCc2c1c(N)nc1ccc(C(=O)N(C)[C@@H]3COc4cc(C(F)(F)F)ccc43)cc21` (single isomer, unassigned) [Example 537], the IC50 amounted to 21 nM in the assay with HCT116 MTAP null cells and 881 nM with HCT116 WT cells.

In the case of `C[C@H]1OCc2c1c(N)nc1ccc(C(=O)N(C)[C@H]3COc4cc(C(F)(F)F)ccc43)cc21` (single isomer, unassigned) [Example 538], the IC50 worked out at 1840 nM in the assay with HCT116 MTAP null cells and 23600 nM with HCT116 WT cells.

With `CCN(C(=O)c1ccc2nc(N)c3c(c2c1)CO[C@@H]3C)[C@@H]1COc2cc(C(F)(F)F)ccc21` (single isomer, unassigned) [Example 539], the IC50 in the assay with HCT116 MTAP null cells stood at 15 nM; in the assay on HCT116 WT cells, 663 nM.

Turning to `CCN(C(=O)c1ccc2nc(N)c3c(c2c1)CO[C@@H]3C)[C@H]1COc2cc(C(F)(F)F)ccc21` (single isomer, unassigned) [Example 540], the IC50 in the assay on HCT116 MTAP null cells worked out at 722 nM; in the assay with HCT116 WT cells, 18600 nM.

With `CN(C(=O)c1cc2c3c(c(N)nc2cn1)COC3)[C@@H]1COc2cc(C#N)ccc21` (single isomer, unassigned) [Example 541], the IC50 stood at 77 nM in the assay with HCT116 MTAP null cells and 3800 nM in the assay with HCT116 WT cells.

`CN(C(=O)c1cc2c3c(c(N)nc2cn1)COC3)[C@@H]1COc2cc(C(F)(F)F)ncc21` (single isomer, unassigned) [Example 542]: the IC50 in the assay with HCT116 MTAP null cells was 785 nM; in the assay on HCT116 WT cells, 46000 nM.

For `CCN(C(=O)c1cc2c3c(c(N)nc2cn1)COC3)[C@@H]1COc2cc(C(F)(F)F)ccc21` (single isomer, unassigned) [Example 543], the IC50 with HCT116 MTAP null cells is 49 nM; in the assay with HCT116 WT cells it was 1460 nM.

Take `CCN(C(=O)c1cc2c3c(c(N)nc2cn1)COC3)[C@H]1COc2cc(C(F)(F)F)ccc21` (single isomer, unassigned) [Example 544]: the figures for the IC50 with HCT116 MTAP null cells and in the assay on HCT116 WT cells were 5230 nM and 15200 nM, respectively.

`CN(C(=O)c1cc2c3c(c(N)nc2cn1)COC3)[C@@H]1COc2cc(C(F)(F)F)cc(F)c21` (single isomer, unassigned) [Example 545]: the values for the IC50 in the assay with HCT116 MTAP null cells and with HCT116 WT cells were 68 nM and 3250 nM, respectively.

Take `CN(C(=O)c1cc2c3c(c(N)nc2cn1)COC3)[C@H]1COc2cc(C(F)(F)F)cc(F)c21` (single isomer, unassigned) [Example 546]: the IC50 in the assay with HCT116 MTAP null cells is 9590 nM; in the assay with HCT116 WT cells it was 30700 nM.

For `Nc1nc2cnc(C(=O)N(C3CC3)[C@@H]3COc4cc(C(F)(F)F)ccc43)cc2c2c1COC2` (single isomer, unassigned) [Example 547], the IC50 in the assay on HCT116 MTAP null cells was 122 nM; in the assay with HCT116 WT cells, 2460 nM.

For the compound `CN(C(=O)c1cc2c3c(c(N)nc2cn1)COC3)[C@@H]1COc2cc(Cl)c(C(F)(F)F)cc21` (single isomer, unassigned) [Example 548], the figures for the IC50 with HCT116 MTAP null cells and in the assay on HCT116 WT cells were 58 nM and 3060 nM, respectively.

For `CN(C(=O)c1cc2c3c(c(N)nc2cc1F)COC3)[C@@H]1COc2cc(C#N)ccc21` (single isomer, unassigned) [Example 551], the IC50 with HCT116 MTAP null cells was determined as 17 nM; with HCT116 WT cells, 1340 nM.

Consider `CN(C(=O)c1cc2c3c(c(N)nc2cc1F)COC3)[C@@H]1COc2cc(C(F)(F)F)ccc21` (single isomer, unassigned) [Example 552], for which the IC50 with HCT116 MTAP null cells came out at 34 nM; in the assay on HCT116 WT cells, 1220 nM.

As to `CN(C(=O)c1cc2c3c(c(N)nc2cc1F)COC3)[C@H]1COc2cc(C(F)(F)F)ccc21` (single isomer, unassigned) [Example 553], the results for the IC50 with HCT116 MTAP null cells and with HCT116 WT cells were 1380 nM and 11400 nM, respectively.

Regarding `Nc1nc2cc(F)c(C(=O)N(C3CC3)[C@@H]3COc4cc(C(F)(F)F)ccc43)cc2c2c1COC2` (single isomer, unassigned) [Example 554], the IC50 is 21 nM in the assay on HCT116 MTAP null cells and 1400 nM in the assay on HCT116 WT cells.

Consider `Nc1nc2cc(F)c(C(=O)N(C3CC3)[C@H]3COc4cc(C(F)(F)F)ccc43)cc2c2c1COC2` (single isomer, unassigned) [Example 555], for which the IC50 came to 1620 nM in the assay with HCT116 MTAP null cells and 13300 nM with HCT116 WT cells.

As for `Nc1nc2cc(F)c(C(=O)N(CC3CC3)[C@@H]3COc4cc(C(F)(F)F)ccc43)cc2c2c1COC2` (single isomer, unassigned) [Example 556], the IC50 in the assay on HCT116 MTAP null cells worked out at 11 nM; with HCT116 WT cells, 133 nM.

`Nc1nc2cc(F)c(C(=O)N(CC3CC3)[C@H]3COc4cc(C(F)(F)F)ccc43)cc2c2c1COC2` (single isomer, unassigned) [Example 557]: the IC50 with HCT116 MTAP null cells was 665 nM; with HCT116 WT cells, 10500 nM.

For `CN(C(=O)c1cc2c3c(c(N)nc2cc1Cl)COC3)[C@@H]1CCc2nc(C(F)(F)F)ccc21` (single isomer, unassigned) [Example 558], the IC50 is 17 nM in the assay with HCT116 MTAP null cells and 941 nM with HCT116 WT cells.

On to `CN(C(=O)c1cc2c3c(c(N)nc2cc1Cl)COC3)[C@H]1CCc2nc(C(F)(F)F)ccc21` (single isomer, unassigned) [Example 559], for which the figures for the concentration for half-maximal inhibition (IC50) with HCT116 MTAP null cells and in the assay on HCT116 WT cells were 1280 nM and 41400 nM, respectively.

`CN(C(=O)c1cc2c3c(c(N)nc2cc1Cl)COC3)[C@@H]1COc2cc(C(F)(F)F)ccc21` (single isomer, unassigned) [Example 560]: the IC50 amounted to 12 nM in the assay with HCT116 MTAP null cells and 594 nM in the assay with HCT116 WT cells.
